Experimental data as given in US12653191B2, “Active compound combinations” (Bayer Aktiengesellschaft, priority 2020, dated 2026).
“And” between values parts separate entries of the source, which are not always exact repeats. Equal values may be shown once. Read-outs that look alike come from different tables or passages of the source.

Legend:
[1] = tested on: Ustilago segetum var. avenae; experiment: in vitro-Test with fungal microorganisms, Method B (tables I6-I11); format: cell-based; conditions: alone, 0.08 ppm; read-out: Efficacy %
Summary of the method: (§1)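 Cpd in MeOH + alkylaryl-polyglycol-ether, solvent evaporated; liquid medium + fungal spores/mycelium added; OD600 read; 3–7 d, 20° C., 85% RH; growth inhibition by photometry, % efficacy vs untreated ctrl.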

[2] = tested on: Cercospora beticola; experiment: in vitro-Test with fungal microorganisms, Method B (tables C11-C20); format: cell-based
Summary of the method: as §1

[3] = tested on: Fusarium culmorum; experiment: in vitro-Test with fungal microorganisms, Method B (tables G5-G15); format: cell-based
Summary of the method: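 Read photometrically at 600 nm after 3-7 days at 20° C and 85% relative humidity, Fusarium culmorum growth inhibition is expressed against untreated control. Wells hold solvent-evaporated compound (from methanol/emulsifier) overlaid with spore- or mycelium-amended growth medium.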

[4] = tested on: Colletotrichum coccodes; experiment: in vitro-Test with fungal microorganisms, Method B (tables J1-J11); format: cell-based
Summary of the method: as §1

[5] = tested on: Cordana musae; experiment: in vitro-Test with fungal microorganisms, Method B (tables E9-E16); format: cell-based; conditions: single active
Summary of the method: as §1

[6] = tested on: Parastagonospora nodorum; experiment: in vitro-Test with fungal microorganisms, Method B (tables H5-H8); format: cell-based
Method: (§2) Example: In Vitro-Test with Fungal Microorganisms
(§3) Wells of 96-well microtiter plates are filled with 30 μl of a preparation of test compound or compound combination in methanol+emulsifier alkylaryl-polyglycol-ether. Thereafter, the solvent is evaporated in a hood. At the next step, 200 μl of liquid growth medium is given, that has been amended with an appropriate concentration of spores or mycelium suspension of the test fungus.
(§4) With the aid of a photometer, the extinction in all wells is measured at the wavelength of 600 nm.
(§5) The microtiter plates are incubated for 3 to 7 days at 20° C. and 85% relative humidity. After the incubation inhibition of growth is determined photometrically. Efficacy is calculated in relation to the untreated control, 0% efficacy means fungal growth as high as in untreated control while 100% efficacy means no fungal growth is measured.
(§6) The data in tables A1 to A12, B1 to B14, C1 to C10, D1 to D8, E1 to E8, F1 to F11, G1 to G4, H1 to H4 and I1 to I5 were collected according to Method A. The data in tables A13 to A22, B15 to B18, C11 to C20, E9 to E16, F12 to F15, G5 to G15, H5 to H8, I6 to I11 and J1 to J11 were collected according to Method B.

[7] = tested on: Alternaria alternata; experiment: in vitro-Test with fungal microorganisms, Method B (tables A13-A22); format: cell-based
Summary of the method: as §1

[8] = tested on: Botrytis cinerea; experiment: in vitro-Test with fungal microorganisms, Method A (tables B1-B14); format: cell-based; conditions: for Efficacy %: alone
Summary of the method: (§7)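 First, compound in methanol with alkylaryl-polyglycol-ether was dried down in the plate. Next, spore or mycelium suspension in potato dextrose broth was added and extinction read at 620 nm. After 3-5 days at 20° C, 85% RH, reading was repeated and efficacy scored against untreated wells.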

[9] = tested on: Colletotrichum lindemuthianum; experiment: in vitro-Test with fungal microorganisms, Method A (tables D1-D8); format: cell-based
Summary of the method: as §7

[10] = tested on: Cordana musae; experiment: in vitro-Test with fungal microorganisms, Method A (tables E1-E8); format: cell-based
Summary of the method: as §7

[11] = tested on: Diaporthe citri; experiment: in vitro-Test with fungal microorganisms, Method A (tables F1-F11); format: cell-based
Summary of the method: as §7

[12] = tested on: Alternaria alternate; experiment: in vitro-Test with fungal microorganisms, Method A (tables A1-A12); format: cell-based, Alternaria alternata; conditions: applied alone
Summary of the method: as §7

[13] = tested on: Cercospora beticola; experiment: in vitro-Test with fungal microorganisms, Method A (tables C1-C10); format: cell-based
Summary of the method: as §7

[14] = tested on: Botrytis cinerea; experiment: in vitro-Test with fungal microorganisms, Method B (tables B15-B18); format: cell-based
Summary of the method: as §1

[15] = tested on: Diaporthe citri; experiment: in vitro-Test with fungal microorganisms, Method B (tables F12-F15); format: cell-based; conditions: Table F14
Method: as §2, §3, §4, §5, §6

CCN(C)C=Nc1cc(C)c(Oc2cccc(SC(F)(F)C(F)F)c2)cc1C [(1.067), N′-(2,5-dimethyl-4-{3-[(1,1,2,2-tetrafluoro-ethyl)sulfanyl]-phenoxy}phenyl)-N-ethyl-N-methyl-imidoformamide]
inhibition of growth at 0.08 ppm [1]: 100%
inhibition of growth at 0.08 ppm ([2]; Cercospora beticola, single compound, 0.08 ppm, read-out: Efficacy %): 0%
inhibition of growth at 0.4 ppm ([2]; Cercospora beticola, single compound, 0.4 ppm, read-out: Efficacy %): 68%
inhibition of growth at 2 ppm ([2]; Cercospora beticola, single compound, 2 ppm, read-out: Efficacy %): 100%
inhibition of growth at 0.08 ppm ([3]; Fusarium culmorum, 0.08 ppm, alone, read-out: Efficacy): 30%
inhibition of growth at 0.4 ppm ([3]; Fusarium culmorum, 0.4 ppm, alone, read-out: Efficacy): 26%
inhibition of growth at 2 ppm ([3]; Fusarium culmorum, 2 ppm, alone, read-out: Efficacy): 99%
inhibition of growth at 0.08 ppm ([3]; Fusarium culmorum, single active compound, 0.08 ppm, read-out: Efficacy): 22%
inhibition of growth at 2 ppm ([3]; Fusarium culmorum, single active compound, 2 ppm, read-out: Efficacy): 97%
inhibition of growth at 0.4 ppm ([4]; Colletotrichum coccodes, 0.4 ppm, read-out: Efficacy %): 0%
inhibition of growth at 2 ppm ([4]; Colletotrichum coccodes, 2 ppm, read-out: Efficacy %): 99%
inhibition of growth at 0.08 ppm ([4]; Colletotrichum coccodes, single active compound at 0.08 ppm, read-out: Efficacy %): 1%
inhibition of growth at 0.4 ppm ([4]; Colletotrichum coccodes, single active compound at 0.4 ppm, read-out: Efficacy %): 12%
inhibition of growth at 2 ppm ([4]; Colletotrichum coccodes, single active compound at 2 ppm, read-out: Efficacy %): 97%
inhibition of growth at 0.08 ppm ([5]; Neocordana musae, 0.08 ppm, read-out: Efficacy): 0%
inhibition of growth at 0.4 ppm ([5]; Neocordana musae, 0.4 ppm, read-out: Efficacy): 14%
inhibition of growth at 2 ppm ([5]; Neocordana musae, 2 ppm, read-out: Efficacy): 100%
inhibition of growth at 0.08 ppm ([6]; Parastagonospora nodorum, 0.08 ppm, read-out: Efficacy): 94%
inhibition of growth at 0.4 ppm ([6]; Parastagonospora nodorum, 0.4 ppm, read-out: Efficacy): 100%
inhibition of growth at 2 ppm ([7]; Alternaria alternata, 2 ppm, read-out: Efficacy): 74%

CCCOc1nc2ccc(I)cc2c(=O)n1CCC [(13.004) proquinazid, proquinazid]
Efficacy % ([2]; 2 ppm): 0%
Efficacy % ([2]; 10 ppm): 0%
Efficacy % ([2]; single compound, 0.08 ppm): 0%
Efficacy ([8]; 0.08 ppm): 13%
Efficacy ([8]; 0.4 ppm): 0%
Efficacy ([8]; 2.0 ppm): 0%
Efficacy ([8]; 10.0 ppm): 0%
Efficacy % ([8]; 0.4 ppm): 0%
Efficacy % ([8]; 10.0 ppm): 0%
Efficacy % ([9]; single active at 0.08 ppm): 0%
Efficacy % ([9]; single active at 0.4 ppm): 0%
Efficacy % ([9]; single active at 2.0 ppm): 2%
Efficacy % ([9]; single active at 10.0 ppm): 25%
Efficacy % ([10]; mixing partner alone, 0.08 ppm): 0%
Efficacy % ([10]; mixing partner alone, 0.4 ppm): 0%
Efficacy % ([10]; mixing partner alone, 2.0 ppm): 1%
Efficacy % ([10]; mixing partner alone, 10.0 ppm): 26%
Efficacy ([11]; Table F10, 0.08 ppm alone): 0%
Efficacy ([11]; Table F10, 0.4 ppm alone): 0%
Efficacy ([11]; Table F10, 2.0 ppm alone): 12%
Efficacy ([11]; Table F10, 10.0 ppm alone): 24%
Efficacy ([11]; applied alone, 0.08 ppm): 16%
Efficacy ([11]; applied alone, 0.4 ppm): 0%
Efficacy ([11]; applied alone, 10.0 ppm): 21%
Efficacy ([3]; 0.08 ppm alone): 18%
Efficacy ([3]; 0.4 ppm alone): 0%
Efficacy ([3]; single active compound, 0.08 ppm): 2%
Efficacy ([3]; single active compound, 0.4 ppm): 11%
Efficacy ([3]; single active compound, 2 ppm): 8% and 7%
Efficacy % ([4]; single active compound at 0.4 ppm): 0%
Efficacy % ([4]; single active compound at 2 ppm): 0%
Efficacy % ([4]; single active compound at 10 ppm): 0%
Efficacy ([5]; 0.08 ppm): 0% and 5%
Efficacy ([5]; 0.4 ppm): 0% and 3%
Efficacy ([5]; 10 ppm): 15% and 20%
Efficacy % ([12]; 0.08 ppm): 19%
Efficacy % ([12]; 0.4 ppm): 6%
Efficacy % ([12]; 2.0 ppm): 0%
Efficacy % ([12]; 10.0 ppm): 9%
Efficacy ([6]; 0.08 ppm): 32%
Efficacy ([7]; 0.08 ppm): 0%
Efficacy ([7]; 0.4 ppm): 3%
Efficacy ([7]; 2 ppm): 4%
Efficacy ([7]; single compound, 0.08 ppm): 11%
Efficacy ([7]; single compound, 0.4 ppm): 10%
Efficacy ([7]; single compound, 2 ppm): 0%
Efficacy ([7]; single compound, 10 ppm): 5%
Efficacy % ([13]; 0.08 ppm alone): 9%
Efficacy % ([13]; 0.4 ppm alone): 0%
Efficacy % ([13]; 2.0 ppm alone): 0%
Efficacy % ([13]; 10.0 ppm, alone): 19%
Efficacy % ([14]; 0.4 ppm alone): 0%
Efficacy % ([14]; 2 ppm alone): 3% and 5%

N#Cc1ccccc1NC(=O)c1snc(Cl)c1Cl [(6.002) isotianil, isotianil]
Efficacy ([15]; 0.8 ppm alone): 10%
Efficacy ([15]; 4 ppm alone): 9%
Efficacy ([15]; 20 ppm alone): 5%
Efficacy ([15]; 100 ppm alone): 19%
Efficacy % ([2]; 4 ppm): 8%
Efficacy % ([2]; 20 ppm): 3%
Efficacy % ([2]; single compound, 100 ppm): 0%
Efficacy % ([9]; mixing partner alone, 0.8 ppm): 0%
Efficacy % ([9]; mixing partner alone, 4.0 ppm): 9%
Efficacy % ([9]; mixing partner alone, 20.0 ppm): 3%
Efficacy % ([9]; mixing partner alone, 100.0 ppm): 0%
Efficacy % ([10]; single substance, 0.8 ppm): 9%
Efficacy % ([10]; single substance, 4.0 ppm): 6%
Efficacy % ([10]; single substance, 20.0 ppm): 0%
Efficacy ([11]; Table F11, 0.8 ppm alone): 0%
Efficacy ([11]; Table F11, 4.0 ppm alone): 22%
Efficacy ([11]; Table F11, 20.0 ppm alone): 37%
Efficacy ([11]; Table F11, 100.0 ppm alone): 0%
Efficacy ([11]; applied alone, 0.8 ppm): 29%
Efficacy ([11]; applied alone, 4.0 ppm): 5%
Efficacy ([11]; applied alone, 20.0 ppm): 15%
Efficacy ([11]; applied alone, 100.0 ppm): 16%
Efficacy ([11]; single active, 0.8 ppm): 0%
Efficacy ([11]; single active, 4.0 ppm): 12%
Efficacy ([11]; single active, 20.0 ppm): 14%
Efficacy ([11]; single active, 100.0 ppm): 18%
Efficacy ([3]; single active compound, 0.8 ppm): 7%
Efficacy ([3]; single active compound, 4 ppm): 16%
Efficacy ([3]; single active compound, 20 ppm): 14%
Efficacy ([3]; single active compound, 100 ppm): 20%
Efficacy % ([4]; single active compound at 20 ppm): 0%
Efficacy % ([4]; single active compound at 100 ppm): 0%
Efficacy ([5]; 0.8 ppm): 9%
Efficacy ([5]; 4 ppm): 15% and 18%
Efficacy ([5]; 20 ppm): 10% and 18%
Efficacy ([5]; 100 ppm): 7%
Efficacy ([7]; 4 ppm): 0%
Efficacy ([7]; 20 ppm): 0%
Efficacy ([7]; 100 ppm): 15%
Efficacy ([7]; single compound, 0.8 ppm): 0%
Efficacy ([7]; single compound, 20 ppm): 11%
